Measured values as given in ChEMBL document CHEMBL3046079, “Synthesis, herbicidal activity, and mode of action of IR 5790” (J Agric Food Chem, 2001).
Calls of active or inactive are those of the source.

What was measured:
[1] = system: Oryza sativa; experiment: Phytotoxicity against Oryza sativa (rice) assessed as injury at 50 g/ha applied as pre-emergent treatment at 24 hr post-sowing measured after 28 days relative to control; format: organism-based; details: in vivo, other, 672 h
[2] = system: Glycine max; experiment: Phytotoxicity against Glycine max (soybean) assessed as injury at 150 g/ha applied as pre-emergent treatment at 24 hr post-sowing measured after 28 days relative to control; format: organism-based; details: in vivo, other, 672 h
[3] = system: Panicum dichotomiflorum; experiment: Post-emergence herbicidal activity against Panicum dichotomiflorum assessed as injury at 50 g/ha applied at 15 days post-sowing measured after 15 days relative to control; format: functional
[4] = system: Alopecurus myosuroides; experiment: Post-emergence herbicidal activity against Alopecurus myosuroides assessed as injury at 15 g/ha applied at 15 days post-sowing measured after 15 days relative to control; format: functional
[5] = system: Zea mays; experiment: Phytotoxicity against Zea mays (maize) assessed as injury at 50 g/ha applied as post-emergent treatment at 15 days post-sowing measured after 15 days relative to control; format: organism-based; details: in vivo, other, 360 h
[6] = system: Digitaria sanguinalis; experiment: Post-emergence herbicidal activity against Digitaria sanguinalis (hairy crabgrass) assessed as injury at 50 g/ha applied at 15 days post-sowing measured after 15 days relative to control; format: functional
[7] = system: Sida spinosa; experiment: Pre-emergence herbicidal activity against Sida spinosa assessed as injury at 150 g/ha applied at 24 hr post-sowing measured after 28 days relative to control; format: functional
[8] = system: Abutilon theophrasti; experiment: Pre-emergence herbicidal activity against Abutilon theophrasti (velvetleaf) assessed as injury at 50 g/ha applied at 24 hr post-sowing measured after 28 days relative to control; format: functional
[9] = system: Glycine max; experiment: Phytotoxicity against Glycine max (soybean) assessed as injury at 150 g/ha applied as post-emergent treatment at 15 days post-sowing measured after 15 days relative to control; format: organism-based; details: in vivo, other, 360 h
[10] = system: Veronica persica; experiment: Post-emergence herbicidal activity against Veronica persica assessed as injury at 150 g/ha applied at 15 days post-sowing measured after 15 days relative to control; format: functional
[11] = system: Stellaria media; experiment: Post-emergence herbicidal activity against Stellaria media assessed as injury at 50 g/ha applied at 15 days post-sowing measured after 15 days relative to control; format: functional
[12] = system: Papaver rhoeas; experiment: Post-emergence herbicidal activity against Papaver rhoeas assessed as injury at 150 g/ha applied at 15 days post-sowing measured after 15 days relative to control; format: functional
[13] = system: Avena fatua; experiment: Post-emergence herbicidal activity against Avena fatua assessed as injury at 50 g/ha applied at 15 days post-sowing measured after 15 days relative to control; format: functional
[14] = system: Capsella bursa-pastoris; experiment: Post-emergence herbicidal activity against Capsella bursa-pastoris assessed as injury at 50 g/ha applied at 15 days post-sowing measured after 15 days relative to control; format: functional
[15] = molecular target: T1, Putative protoporphyrinogen IX oxidase (Cucumis sativus) (UniProt C6L817); experiment: Inhibition of protoporphyrin oxidase in Cucumis sativus (cucumber) cotyledon disc assessed as increase in extraplastidic protoporphyrin 9 accumulation at 10 uM incubated in dim light for 2 hr by HPLC analysis relative to control
T1 sequence (whole entry): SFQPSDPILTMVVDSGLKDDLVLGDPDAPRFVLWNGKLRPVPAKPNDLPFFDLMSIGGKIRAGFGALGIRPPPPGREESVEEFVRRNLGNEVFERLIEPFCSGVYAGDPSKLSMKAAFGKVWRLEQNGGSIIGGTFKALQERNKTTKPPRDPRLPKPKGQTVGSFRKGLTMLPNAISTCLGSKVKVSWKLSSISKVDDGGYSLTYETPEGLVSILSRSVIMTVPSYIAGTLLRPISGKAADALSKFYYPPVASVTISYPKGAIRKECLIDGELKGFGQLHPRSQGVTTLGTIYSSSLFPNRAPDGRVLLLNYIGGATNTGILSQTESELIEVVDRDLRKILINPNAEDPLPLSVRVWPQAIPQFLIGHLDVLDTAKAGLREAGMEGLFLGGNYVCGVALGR

[16] = system: Gossypium hirsutum; experiment: Phytotoxicity against Gossypium hirsutum (cotton) assessed as injury at 150 g/ha applied as post-emergent treatment at 15 days post-sowing measured after 15 days relative to control; format: organism-based; details: in vivo, other, 360 h
[17] = system: Phalaris arundinacea; experiment: Pre-emergence herbicidal activity against Phalaris arundinacea assessed as injury at 150 g/ha applied at 24 hr post-sowing measured after 28 days relative to control; format: functional
[18] = system: Persicaria maculosa; experiment: Post-emergence herbicidal activity against Persicaria maculosa assessed as injury at 15 g/ha applied at 15 days post-sowing measured after 15 days relative to control; format: functional
[19] = system: Abutilon theophrasti; experiment: Pre-emergence herbicidal activity against Abutilon theophrasti (velvetleaf) assessed as injury at 150 g/ha applied at 24 hr post-sowing measured after 28 days relative to control; format: functional
[20] = system: Oryza sativa; experiment: Phytotoxicity against Oryza sativa (rice) assessed as injury at 50 g/ha applied as post-emergent treatment at 15 days post-sowing measured after 15 days relative to control; format: organism-based; details: in vivo, other, 360 h
[21] = system: Setaria viridis; experiment: Pre-emergence herbicidal activity against Setaria viridis (green foxtail) assessed as injury at 150 g/ha applied at 24 hr post-sowing measured after 28 days relative to control; format: functional
[22] = system: Ammi majus; experiment: Post-emergence herbicidal activity against Amni maius assessed as injury at 50 g/ha applied at 15 days post-sowing measured after 15 days relative to control; format: functional
[23] = system: Ipomoea purpurea; experiment: Pre-emergence herbicidal activity against Ipomoea purpurea (common morning-glory) assessed as injury at 150 g/ha applied at 24 hr post-sowing measured after 28 days relative to control; format: functional
[24] = system: Cucumis sativus; experiment: Induction of photobleaching in Cucumis sativus (cucumber) cotyledon disc at 1 to 100 uM incubated for 20 hr in dark followed by 8 hr in presence of light; format: functional
[25] = molecular target: T1, Putative protoporphyrinogen IX oxidase (Cucumis sativus); experiment: Inhibition of protoporphyrin oxidase in Cucumis sativus (cucumber) cotyledon disc assessed as light-dependent membrane damage at 10 uM incubated for 20 hr in dark followed by 8 hr in presence of light measured as electrolyte leakage relative to control
[26] = system: Geranium dissectum; experiment: Pre-emergence herbicidal activity against Geranium dissectum assessed as injury at 150 g/ha applied at 24 hr post-sowing measured after 28 days relative to control; format: functional
[27] = system: Calystegia sepium; experiment: Post-emergence herbicidal activity against Calystegia sepium assessed as injury at 50 g/ha applied at 15 days post-sowing measured after 15 days relative to control; format: functional
[28] = system: Alopecurus myosuroides; experiment: Pre-emergence herbicidal activity against Alopecurus myosuroides assessed as injury at 50 g/ha applied at 24 hr post-sowing measured after 28 days relative to control; format: functional
[29] = system: Setaria viridis; experiment: Pre-emergence herbicidal activity against Setaria viridis (green foxtail) assessed as injury at 50 g/ha applied at 24 hr post-sowing measured after 28 days relative to control; format: functional
[30] = system: Papaver rhoeas; experiment: Pre-emergence herbicidal activity against Papaver rhoeas assessed as injury at 150 g/ha applied at 24 hr post-sowing measured after 28 days relative to control; format: functional
[31] = system: Avena fatua; experiment: Pre-emergence herbicidal activity against Avena fatua assessed as injury at 150 g/ha applied at 24 hr post-sowing measured after 28 days relative to control; format: functional
[32] = system: Sorghum bicolor; experiment: Post-emergence herbicidal activity against Sorghum bicolor assessed as injury at 50 g/ha applied at 15 days post-sowing measured after 15 days relative to control; format: functional

C#CCOc1cc(-n2nc(C(C)(C)C)sc2=O)c(Cl)cc1Cl
active: inhibition [25]
30%: Activity [9] | Activity [12] | Activity [29]
70%: Activity [16] | Activity [18] | Activity [21] | Activity [27]
90%: Activity [30]
234: fold change (FC) [15]
50%: Activity [3] | Activity [6] | Activity [10]
0%: Activity [1] | Activity [2] | Activity [4] | Activity [5] | Activity [7] | Activity [8] | Activity [11] | Activity [13] | Activity [17] | Activity [19] | Activity [20] | Activity [22] | Activity [23] | Activity [26] | Activity [31] | Activity [32]
inactive: Activity [24]
10%: Activity [14] | Activity [28]
